The results in this text go back to patent US20060183901A1, “Crystalline form of an indazole-carboxamide compound” (THERAVANCE, INC., priority 2005, published 2006).

Some results are limits rather than exact numbers.

One data set relates to Caco-2 cell monolayer. As to the kind of experiment: Caco-2 permeation assay. It counts as in vitro ADME, human. The following applies: 100 μM, 37° C., 60 min. How it is done:
Assay 5: In Vitro Model of Oral Bioavailability: Caco-2 Permeation Assay
The Caco-2 permeation assay was performed to model the ability of test compounds to pass through the intestine and get into the blood stream after oral administration. The rate at which test compounds in solution permeate a cell monolayer designed to mimic the tight junction of human small intestinal monolayers was determined.
Caco-2 (colon, adenocarcinoma; human) cells were obtained from ATCC (American Type Culture Collection; Rockville, Md.). For the permeation study, cells were seeded at a density of 63,000 cells/cm^2 on pre-wetted transwells polycarbonate filters (Costar; Cambridge, Mass.). A cell monolayer was formed after 21 days in culture. Following cell culture in the transwell plate, the membrane containing the cell monolayer was detached from the transwell plate and inserted into the diffusion chamber (Costar; Cambridge, Mass.). The diffusion chamber was inserted into the heating block which was equipped with circulating external, thermostatically regulated 37° C. water for temperature control. […]
The permeation study was performed with test compound concentrations at 100 μM and with ^14C-mannitol to monitor the integrity of the monolayer. […] Samples were analyzed by HPLC or liquid scintillation counting for test compound and mannitol concentrations. The permeation coefficient (Kp) in cm/sec was calculated.
In general terms: Caco-2 monolayers are a common model of the intestinal barrier.

Data set [1] in a line: Pharmacokinetic study in the rat. The note with it: in vivo. How it is done:
Assay 6: Pharmacokinetic Study in the Rat
Aqueous solution formulations of test compounds were prepared in 0.1% lactic acid at a pH of between about 5 and about 6. Male Sprague-Dawley rats (CD strain, Charles River Laboratories, Wilmington, Mass.) were dosed with test compounds via intravenous administration (IV) at a dose of 2.5 mg/kg or by oral gavage (PO) at a dose of 5 mg/kg. The dosing volume was 1 mL/kg for IV and 2 mL/kg for PO administration. Serial blood samples were collected from animals pre-dose, and at 2 (IV only), 5, 15, and 30 min, and at 1, 2, 4, 8, and 24 hours post-dose. Concentrations of test compounds in blood plasma were determined by liquid chromatography-mass spectrometry analysis (LC-MS/MS) (MDS SCIEX, API 4000, Applied Biosystems, Foster City, Calif.) with a lower limit of quantitation of 1 ng/mL.
Standard pharmacokinetic parameters were assessed by non-compartmental analysis (Model 201 for IV and Model 200 for PO) using WinNonlin (Version 4.0.1, Pharsight, Mountain View, Calif.). The maximum in the curve of test compound concentration in blood plasma vs. time is denoted Cmax. The area under the concentration vs. time curve from the time of dosing to the last measurable concentration (AUC(0-t)) was calculated by the linear trapezoidal rule. Oral bioavailability (F(%)), i.e. the dose-normalized ratio of AUC(0-t) for PO administration to AUC(0-t) for IV administration, was calculated as: F(%)=AUCPO/AUCIV×DoseIV/DosePO×100%

In a further data set the target is human 5-HT3A receptor (Homo sapiens, UniProt P46098).
Sequence of human 5-HT3A receptor (P46098 24-478): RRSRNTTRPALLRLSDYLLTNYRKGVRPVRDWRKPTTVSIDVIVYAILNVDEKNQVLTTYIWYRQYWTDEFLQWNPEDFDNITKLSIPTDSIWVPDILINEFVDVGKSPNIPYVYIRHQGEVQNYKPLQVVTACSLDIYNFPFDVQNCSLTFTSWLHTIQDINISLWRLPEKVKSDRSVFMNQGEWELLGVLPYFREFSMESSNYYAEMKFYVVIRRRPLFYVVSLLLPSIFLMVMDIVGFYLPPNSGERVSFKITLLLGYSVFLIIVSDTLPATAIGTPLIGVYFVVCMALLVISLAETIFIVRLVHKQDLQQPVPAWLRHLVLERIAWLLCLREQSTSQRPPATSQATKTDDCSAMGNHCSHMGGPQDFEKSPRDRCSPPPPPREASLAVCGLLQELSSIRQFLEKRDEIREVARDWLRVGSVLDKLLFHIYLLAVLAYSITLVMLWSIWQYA
Data set [2] has as its target T1, human 5-HT4(c) receptor (Homo sapiens, UniProt Q13639). As to the kind of experiment: Radioligand binding assay on 5-HT4(c) human receptors. Also noted: expressed in transfected cells. On the procedure:
Assay 1: Radioligand Binding Assay on 5-HT4(c) Human Receptors a. Membrane Preparation 5-HT4(c)
Cells were grown under continuous selection pressure by the addition of 800 μg/mL geneticin (GIBCO-Invitrogen Corp.: Cat #10131) to the medium.
Cells were grown to roughly 60-80% confluency (<35 subculture passages). At 20-22 hours prior to harvesting, cells were washed twice and fed with serum-free DMEM. […] The cell monolayer was lifted by gentle mechanical agitation and trituration with a 25 mL pipette.
For the membrane preparation, cell pellets were resuspended in ice-cold 50 mM 4-(2-hydroxyethyl)-1-piperazineethanesulphonic acid (HEPES), pH 7.4 (membrane preparation buffer) (40 mL/total cell yield from 30-40 T225 flasks) and homogenized using a polytron disrupter (setting 19, 2×10 s) on ice. The resultant homogenates were centrifuged at 1200 g for 5 min at 4° C. […] Protein concentration of the membrane suspension was determined by the method of Bradford (Bradford, 1976). […]
Non-specific binding was determined in the presence of 1 μM unlabeled GR113808.
Binding data were analyzed by nonlinear regression analysis with the GraphPad Prism Software package (GraphPad Software, Inc., San Diego, Calif.) using the 3-parameter model for one-site competition. […] Results are expressed as the negative decadic logarithm of the Ki values, pKi.

Data set [3] has as its target T1, human 5-HT4(c) receptor. As to the kind of experiment: Whole-cell cAMP accumulation flashplate assay with HEK-293 cells expressing human 5-HT4(c) receptors. Also noted: expressed in transfected cells; host or cells: HEK-293. It counts as cell-based. On the procedure: The plates were sealed and incubated at 4° C. overnight.
Potency data are reported as pEC50 values, the negative decadic logarithm of the EC50 value, where EC50 is the effective concentration for a 50% maximal response.
In general terms: cAMP levels reflect the balance of adenylyl cyclase and phosphodiesterase activity.

Setting [4] is: male Sprague-Dawley rats, PO 5 mg/kg, blood plasma.

T1 sequence (Q13639 1-380 isoform Q13639-4): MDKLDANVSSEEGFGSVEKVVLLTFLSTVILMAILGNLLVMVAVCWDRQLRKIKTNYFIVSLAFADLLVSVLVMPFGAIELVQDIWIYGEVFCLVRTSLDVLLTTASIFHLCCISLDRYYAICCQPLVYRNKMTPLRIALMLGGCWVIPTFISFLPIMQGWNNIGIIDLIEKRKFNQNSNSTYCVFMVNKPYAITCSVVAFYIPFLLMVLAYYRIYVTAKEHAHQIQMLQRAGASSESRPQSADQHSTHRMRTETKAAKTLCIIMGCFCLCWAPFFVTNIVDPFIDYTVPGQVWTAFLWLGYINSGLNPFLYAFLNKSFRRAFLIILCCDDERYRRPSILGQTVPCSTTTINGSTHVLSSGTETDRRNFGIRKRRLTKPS
Protocol for human 5-HT3A receptor: Assay 2: Radioligand Binding Assay on 5-HT3A Human Receptors: Determination of Receptor Subtype Selectivity
Membrane Preparation 5-HT3A
Cells were grown in T-225 flasks or cell factories in 50% Dulbecco's Modified Eagles Medium (DMEM) (GIBCO-Invitrogen Corp., Carlsbad, Calif.: Cat #11965) and 50% Ham's F12 (GIBCO-Invitrogen Corp.: Cat #11765) supplemented with 10% heat inactivated fetal bovine serum (FBS) (Hyclone, Logan, Utah: Cat #SH30070.03) and (50 units) penicillin-(50 μg) streptomycin/ml (GIBCO-Invitrogen Corp.: Cat #15140) in a 5% CO2, humidified incubator at 37° C.
Cells were grown to roughly 70-80% confluency (<35 subculture passages). All steps of the membrane preparation were performed on ice. […]
Radioligand binding assays were performed in 96-well polypropylene assay plates in a total assay volume of 200 μL containing 1.5-2 μg membrane protein in 50 mM HEPES pH 7.4, containing 0.025% BSA assay buffer. […] Non-specific binding was determined in the presence of 10 μM unlabeled MDL72222. […] Filter plates were washed three times with filtration buffer (ice-cold 50 mM HEPES, pH7.4) to remove unbound radioactivity. Plates were dried, 35 μL Microscint-20 liquid scintillation fluid (Packard BioScience Co., Meriden, Conn.) was added to each well and plates were counted in a Packard Topcount liquid scintillation counter (Packard BioScience Co., Meriden, Conn.). […]

Consider `CC(=O)N1CCN(CCN2C3CCC2CC(NC(=O)c2nn(C(C)C)c4ccccc24)C3)CC1` [compound of formula I, 1-isopropyl-1H-indazole-3-carboxylic acid {(1S,3R,5R)-8-[2-(4-acetylpiperazin-1-yl)ethyl]-8-azabicyclo[3.2.1]oct-3-yl}amide], for which the “permeation coefficient Kp” value in the data set with Caco-2 cell monolayer is listed as “greater than 20×10^−6 cm/sec”. In data set [1] (setting [4]), the AUC(0-t) amounted to 730 ng·h/mL and the peak level (Cmax) was 250 ng/mL. Moreover, the bioavailability in data set [1] (male, Sprague-Dawley, PO 5 mg/kg vs IV 2.5 mg/kg, read-out: oral bioavailability (F(%))) was roughly 100%. Besides, the “5-HT4/5-HT3 receptor subtype selectivity, ratio Ki(5-HT3A)/Ki(5-HT4(c))” value at human 5-HT3A receptor is on record as “greater than 500”. Moreover, the Ki on human 5-HT4(c) receptor [2] was less than 100 nM. For the same compound, the EC50 on human 5-HT4(c) receptor [3] was less than 31.6 nM.

A word on the AUC(0-t): it is exposure summed from dosing to a finite time, without extrapolation to infinity. In general, Cmax refers to the highest concentration seen after dosing. What is called bioavailability is the share of a dose that reaches the circulation, judged against a reference dose that is usually intravenous. For orientation: Ki means the equilibrium dissociation constant of an inhibitor or competing ligand from its target. A lower Ki goes with tighter binding. As usually defined, the EC50 is the concentration that produces a half-maximal response. Read a high EC50 as lower potency in that assay.
